Test results from ChEMBL document CHEMBL1137217, “Further structurally constrained analogues of cis-(6-benzhydrylpiperidin-3-yl)benzylamine with elucidation of bioactive conformation: discovery of 1,4-diazabicyclo[3.3.1]nonane derivatives and evaluation of their biological properties for the monoamine transporters” (J Med Chem, 2004).

What was measured:
[1] = biological target: T1, Sodium-dependent dopamine transporter (Rattus norvegicus, UniProt P23977); assay: Inhibition of [3H]WIN-35428 binding to dopamine transporter of rat striatum; assay type: tissue-based
T1 sequence (P23977 whole entry): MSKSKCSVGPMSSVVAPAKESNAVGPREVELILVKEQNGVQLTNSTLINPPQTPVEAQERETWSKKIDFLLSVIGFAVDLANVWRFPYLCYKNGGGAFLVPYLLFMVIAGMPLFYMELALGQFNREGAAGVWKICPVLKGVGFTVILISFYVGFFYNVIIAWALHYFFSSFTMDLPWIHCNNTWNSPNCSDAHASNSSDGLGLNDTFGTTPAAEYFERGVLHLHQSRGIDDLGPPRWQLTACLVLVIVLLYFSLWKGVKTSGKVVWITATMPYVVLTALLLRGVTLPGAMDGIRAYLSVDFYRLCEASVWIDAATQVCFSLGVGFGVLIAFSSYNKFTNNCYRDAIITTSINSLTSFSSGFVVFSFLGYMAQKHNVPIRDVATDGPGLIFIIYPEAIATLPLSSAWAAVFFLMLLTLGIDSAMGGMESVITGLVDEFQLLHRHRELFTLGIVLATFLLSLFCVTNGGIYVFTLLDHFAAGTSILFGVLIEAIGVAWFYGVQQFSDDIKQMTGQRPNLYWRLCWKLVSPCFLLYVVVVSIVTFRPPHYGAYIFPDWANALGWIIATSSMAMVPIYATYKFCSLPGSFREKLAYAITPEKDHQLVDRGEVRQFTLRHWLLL

[2] = biological target: Norepinephrine transporter (Rattus norvegicus, UniProt Q9WTR4); assay: Inhibition of [3H]nisoxetine binding to norepinephrine transporter of rat cerebral cortex; assay type: tissue-based
Norepinephrine transporter, sequence (Q9WTR4 whole entry): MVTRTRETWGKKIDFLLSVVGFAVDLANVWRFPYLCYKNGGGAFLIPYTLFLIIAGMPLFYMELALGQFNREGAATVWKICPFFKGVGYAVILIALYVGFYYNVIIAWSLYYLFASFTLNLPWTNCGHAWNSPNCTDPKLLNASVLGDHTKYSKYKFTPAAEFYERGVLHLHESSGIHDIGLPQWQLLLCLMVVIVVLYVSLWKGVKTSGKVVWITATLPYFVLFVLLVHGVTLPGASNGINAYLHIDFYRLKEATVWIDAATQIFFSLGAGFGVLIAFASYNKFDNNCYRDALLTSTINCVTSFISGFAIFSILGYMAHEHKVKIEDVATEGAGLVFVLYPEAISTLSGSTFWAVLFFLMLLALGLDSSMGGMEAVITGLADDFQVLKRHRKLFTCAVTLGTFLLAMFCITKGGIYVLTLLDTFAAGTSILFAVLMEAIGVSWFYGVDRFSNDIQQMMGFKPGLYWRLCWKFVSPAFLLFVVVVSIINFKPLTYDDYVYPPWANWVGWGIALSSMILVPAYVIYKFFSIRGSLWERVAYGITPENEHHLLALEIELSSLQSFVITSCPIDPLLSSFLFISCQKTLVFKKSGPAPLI

[3] = biological target: Monoamine transporters; serotonin & dopamine (Rattus norvegicus) (UniProt P31652+P23977); assay: Relative binding affinity for serotonin and dopamine transporters, ratio of IC50; assay type: protein assay
Monoamine transporters; serotonin & dopamine (Rattus norvegicus), sequence (P23977 whole entry, looked up): as the sequence (P23977 whole entry) above
Monoamine transporters; serotonin & dopamine (Rattus norvegicus), sequence (P31652 whole entry, looked up): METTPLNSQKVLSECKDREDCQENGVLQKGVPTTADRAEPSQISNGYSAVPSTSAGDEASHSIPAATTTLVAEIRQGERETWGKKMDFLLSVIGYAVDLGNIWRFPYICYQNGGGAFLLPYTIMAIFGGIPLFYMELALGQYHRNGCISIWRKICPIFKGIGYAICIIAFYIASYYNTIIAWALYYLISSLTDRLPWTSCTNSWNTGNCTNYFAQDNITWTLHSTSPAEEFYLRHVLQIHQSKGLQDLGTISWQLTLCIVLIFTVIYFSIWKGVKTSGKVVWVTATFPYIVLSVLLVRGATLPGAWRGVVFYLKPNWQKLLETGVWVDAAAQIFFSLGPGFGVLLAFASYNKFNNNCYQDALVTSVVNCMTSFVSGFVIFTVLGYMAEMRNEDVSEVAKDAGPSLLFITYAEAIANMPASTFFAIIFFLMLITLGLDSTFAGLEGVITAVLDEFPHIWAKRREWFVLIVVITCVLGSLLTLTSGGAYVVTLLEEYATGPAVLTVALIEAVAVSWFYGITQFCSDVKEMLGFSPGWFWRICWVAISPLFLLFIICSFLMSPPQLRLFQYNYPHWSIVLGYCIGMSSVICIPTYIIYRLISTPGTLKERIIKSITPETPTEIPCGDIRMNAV

[4] = biological target: Sodium-dependent serotonin transporter (Rattus norvegicus, UniProt P31652); assay: Inhibition of [3H]citalopram binding to serotonin transporter of rat cerebral cortex; assay type: tissue-based
Sodium-dependent serotonin transporter, sequence (P31652 whole entry): as the sequence (P31652 whole entry, looked up) above

[5] = biological target: Monoamine transporters; Norepininephrine & dopamine (Rattus norvegicus) (UniProt P23977+Q9WTR4); assay: Relative binding affinity for norepinephrine and dopamine transporter, ratio of IC50; assay type: protein assay
[6] = biological target: T1, Sodium-dependent dopamine transporter; assay: Concentration required to inhibit [3H]DA (dopamine) uptake into rat striatal synaptosomes; assay type: functional, subcellular, Brain
[7] = biological target: Sodium-dependent dopamine transporter (Rattus norvegicus) (UniProt P23977); assay: Ratio of IC50 for [3H]DA uptake to and dopamine transporter binding
Sodium-dependent dopamine transporter (Rattus norvegicus), sequence (P23977 whole entry): as the sequence (P23977 whole entry) above

| SMILES | IC50 [1] [µM] | IC50 [2] [µM] | Selectivity [3] | IC50 [4] [µM] | Selectivity [5] | IC50 [6] [µM] | Selectivity [7] |
| --- | --- | --- | --- | --- | --- | --- | --- |
| CN(Cc1ccc(F)cc1)C1CCC(C(c2ccccc2)c2ccccc2)N(C)C1 (stereo unspecified) | 0.225 | 7 | 10 | 2.36 | 31 | – | – |
| N#Cc1ccc(CNC2CCC(C(c3ccccc3)c3ccccc3)NC2)cc1 (stereo unspecified) | 0.0112 | 1.67 | 38 | 0.434 | 148 | 0.0091 | 0.8 |
| Fc1ccc(CNC2CCC(C(c3ccccc3)c3ccccc3)NC2)cc1 (stereo unspecified) | 0.0338 | 1.42 | – | – | – | 0.0538 | – |
| O=S(=O)(Nc1ccc(CN2CCN3CC2CCC3C(c2ccccc2)c2ccccc2)cc1)c1ccc(Cl)cc1 (stereo unspecified) | 0.371 | 3.48 | 11 | 4.13 | 9 | – | – |
| Fc1ccc(CNC2CCC(C(c3ccccc3)c3ccccc3)N(Cc3ccc(F)cc3)C2)cc1 (stereo unspecified) | 1.24 | 12.6 | 10 | 18.9 | 12 | – | – |
| CN1CCN2CC1CCC2C(c1ccccc1)c1ccccc1 (stereo unspecified) | 4.71 | 60.1 | 33 | 157 | 13 | – | – |
| Fc1ccc(CCN2CCN3CC2CCC3C(c2ccccc2)c2ccccc2)cc1 (stereo unspecified) | 0.565 | > 10 | 4 | 2.55 | > 18 | – | – |
| COc1ccc(CN2CCN3C[C@H]2CC[C@@H]3C(c2ccccc2)c2ccccc2)cc1 | 0.329 | > 10 | 20 | 6.63 | > 30 | 0.269 | 0.8 |
| COc1ccc(CNC2CCC(C(c3ccccc3)c3ccccc3)NC2)cc1 (stereo unspecified) | 0.0475 | 1.11 | 22 | 1.04 | 23 | 0.0405 | 0.85 |
| COc1ccc(CN2CCN3C[C@@H]2CC[C@H]3C(c2ccccc2)c2ccccc2)cc1 | 0.0225 | > 10 | 384 | 8.65 | > 444 | 0.0184 | 0.8 |
